Results as given in patent US7658941B2, “Warming and nonirritating lubricant compositions and method of comparing irritation” (Johnson & Johnson Consumer Companies, Inc., priority 2002, dated 2010).

Tests used:
[1] = Generation of warmth by mixing equal quantity with water; format: physicochemical; conditions: for Actual Temperature (° F.) / Rise in Temperature (° F.) (Expected Minus Actual): 20 ml mixed with 20 ml of water for two minutes
Method: The temperature of the product and that of water were recorded before water was added to the product. After the addition of water the mixture was mixed for two minutes and the actual temperature was recorded. Glycerin, Propylene Glycol and Honey are the ingredients in Composition 1. It is clear from Table 1 that when mixed with water the temperature of the mixture rises by 9.0° F for Glycerin, 13.5° F. for Propylene Glycol, 17.0° F. for Polyethylene Glycol 400 and 12.5° F. for composition Example 1 of this invention.
Calculated Rise in Temperature: In order to determine the expected rise in temperature from each composition, the percentage of each component in such composition was multiplied by the temperature increase generated by such component alone to obtain its expected contribution to the temperature increase. These values were added together to calculate the total expected temperature rise. These values were then compared with the actual temperature rise generated by each composition. For example, the calculated rise in temperature generated by the “K-Y Warming®”, composition in the table above was found as follows and compared with the actual temperature rise to determine the unexpectedly higher generation of warmth of the composition:
Compositions 10, 11 and 12 were tested in accordance with the following procedure to determine the extent to which said compositions generate warmth upon mixture with water. Data was generated by mixing 20 ml of each composition with 20 ml of water. The temperature of the composition and that of water were recorded before water was added to the composition After the addition of water the contents were mixed for two minutes and the actual temperature was recorded.

[2] = test system: epithelial cells derived from human skin; format: cell-based
Method: The method designated as EpiDerm™ Skin Model assay uses the epithelial cells derived from human skin as target cells and is commercially available from the MatTek Corporation. […] The test materials are applied directly to the epithelial cell culture surface. […] The toxicity of the test material is evaluated on the basis of relative tissue viability vs time. The actual Tissue Viability is determined by NAD(P)H-dependent microsomal enzyme reduction of MTT in control and test article treated cultures. The negative control used in this assay was deionized water and the positive control was Triton X-100. The exposed cell cultures were incubated for 4, 8, 16 and 24 hours and assayed for reduction of MTT. […] Relative irritation in this assay is expressed by the percent survival rate of epiderm cells over a period of 24 hours. Products with higher relative survival rates are less toxic or less irritating while the ones with lower survival rates are more toxic or irritating.
The data is plotted as % Viable Cells vs the Exposure Time ranging from 4 to 24 hours.

Molecule	Actual Temperature (° F.) [1] [° F.]	Rise in Temperature (° F.) (Expected Minus Actual) [1]	expected contribution of component to the temperature increase ([1]; in Composition 10)	expected contribution of component to the temperature increase ([1]; in K-Y Warming (Composition 1))	% viable cells [2] [%]
CC(O)CO (stereo not drawn) [Propylene Glycol]	85.2	13.5	5.13	6.75	–
OCC(O)CO [Glycerin]	79.0	9.0	–	4.05	–
CCCCCCCCCCCCCC(=O)OC(C)C [Isopropyl Myristate]	75.2	0.7	–	–	–
Polysorbate 60	83.1	10.6	–	–	–
Triton X-100	–	–	–	–	22.4
